Measured values published in paper PMC8145327, “S100P Interacts with p53 while Pentamidine Inhibits This Interaction” (Biomolecules, 2021).

Biological target: T1, S100P (Homo sapiens, UniProt P25815)
T1 construct: 15N-labeled human S100P (95 amino acid residues)
T1 sequence (P25815 1-95): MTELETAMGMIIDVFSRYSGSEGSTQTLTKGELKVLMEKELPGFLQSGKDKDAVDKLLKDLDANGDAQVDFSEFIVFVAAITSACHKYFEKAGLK
Assay: 1H-15N HSQC NMR titration (chemical shift perturbation)
Type: binding

Kd: 48.7 µM
Compound: N=C(N)c1ccc(OCCCCCOc2ccc(C(=N)N)cc2)cc1 [pentamidine]
